Test [1] in a line: M. tuberculosis growth inhibition, HTS (AID 449762). It is filed as functional.
The nature of test [2]: inhibitors of Vif binding to APOBEC3G peptide, primary screen, biochemical, TR-FRET, GST-Vif 1-94, biotin-A3G peptide, dose response retest (AID 1117319).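 Also: TR-FRET signal of purified GST-Vif binding a biotinylated A3G peptide; inhibitors lower the FRET signal by blocking Vif and A3G binding.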 It is filed as functional. Background: Time-resolved FRET reads energy transfer from a long-lived donor to a nearby acceptor.
In the next test the target is T1, Cytochrome P450 1A2 (Homo sapiens, UniProt P05177).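 Also: PubChem cytochrome P450 panel assay, CYP1A2 panel member.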
T1 sequence (P05177 whole entry): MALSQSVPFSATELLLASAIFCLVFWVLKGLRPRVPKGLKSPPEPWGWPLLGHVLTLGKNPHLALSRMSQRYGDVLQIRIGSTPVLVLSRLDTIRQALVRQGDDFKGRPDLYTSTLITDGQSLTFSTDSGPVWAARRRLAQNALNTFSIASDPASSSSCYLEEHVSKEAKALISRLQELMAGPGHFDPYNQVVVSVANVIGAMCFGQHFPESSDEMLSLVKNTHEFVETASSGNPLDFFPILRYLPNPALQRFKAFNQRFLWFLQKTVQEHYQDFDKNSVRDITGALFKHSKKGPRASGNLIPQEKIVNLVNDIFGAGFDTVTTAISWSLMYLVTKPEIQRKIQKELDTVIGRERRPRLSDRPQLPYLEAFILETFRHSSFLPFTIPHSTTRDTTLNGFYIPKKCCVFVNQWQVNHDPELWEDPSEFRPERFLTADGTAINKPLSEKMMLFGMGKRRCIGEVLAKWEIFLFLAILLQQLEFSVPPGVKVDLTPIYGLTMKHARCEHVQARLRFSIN

The target in test [3] is E3 ubiquitin-protein ligase Mdm2 (Homo sapiens, UniProt Q00987). The test is described as follows: enhancers of MDM2-luciferase reporter signal, concentration-effect titration, project on inhibitors of MDM2 ubiquitin ligase, cellular assay, luminescent readout, 384-well plate format (AID 1394).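 Also: MDM2 E3 inhibitors raise luminescence so EC50 is for signal enhancement.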 It is filed as functional. On the technique in general: In a reporter assay the amount or activity of a reporter protein is the signal.
Chain of E3 ubiquitin-protein ligase Mdm2 (Q00987 whole entry): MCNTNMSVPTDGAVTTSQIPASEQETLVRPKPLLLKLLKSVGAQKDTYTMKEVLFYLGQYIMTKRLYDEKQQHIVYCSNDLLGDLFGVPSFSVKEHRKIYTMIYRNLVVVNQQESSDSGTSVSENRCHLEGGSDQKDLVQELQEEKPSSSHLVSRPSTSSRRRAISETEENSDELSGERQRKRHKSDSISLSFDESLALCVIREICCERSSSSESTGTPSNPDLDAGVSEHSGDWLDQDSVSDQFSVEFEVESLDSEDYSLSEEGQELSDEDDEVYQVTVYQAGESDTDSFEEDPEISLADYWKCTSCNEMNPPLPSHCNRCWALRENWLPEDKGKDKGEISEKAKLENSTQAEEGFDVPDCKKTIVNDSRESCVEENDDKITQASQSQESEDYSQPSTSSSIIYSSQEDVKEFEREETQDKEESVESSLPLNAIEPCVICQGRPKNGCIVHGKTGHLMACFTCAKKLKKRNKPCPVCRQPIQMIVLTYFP

Another test addresses Cytochrome P450 2C19 (Homo sapiens, UniProt P33261). The test is described as follows: Cytochrome panel assay with activity outcomes. Panel member name: p450-cyp2c19 Compounds with AC50 equal or less than 10 uM are considered active. The test is classed as functional. The note with it: read-out: AC50.
Test [4] can be described thus: HeLa 2N DNA content increase, dose response, cell-based, IC50 (AID 1117349). It is filed as functional.
Test [5] in a line: HeLa 4N DNA content increase, dose response, cell-based, IC50 (AID 1117351). It is filed as functional.
Test [6] deals with T2, Polyadenylate-binding protein 1 (Homo sapiens, UniProt P11940). Nature of the test: PABP1 MLLE–PAM2 binding inhibitor potency, dose response, biochemical, fluorescence polarization, FITC-PAM2 peptide (AID 602259). The test is classed as functional. To be noted: read-out: IC50_Mean. (In general: In fluorescence polarisation assays a small probe gives low polarisation when free and higher when bound to something large.)
T2 sequence (P11940 whole entry): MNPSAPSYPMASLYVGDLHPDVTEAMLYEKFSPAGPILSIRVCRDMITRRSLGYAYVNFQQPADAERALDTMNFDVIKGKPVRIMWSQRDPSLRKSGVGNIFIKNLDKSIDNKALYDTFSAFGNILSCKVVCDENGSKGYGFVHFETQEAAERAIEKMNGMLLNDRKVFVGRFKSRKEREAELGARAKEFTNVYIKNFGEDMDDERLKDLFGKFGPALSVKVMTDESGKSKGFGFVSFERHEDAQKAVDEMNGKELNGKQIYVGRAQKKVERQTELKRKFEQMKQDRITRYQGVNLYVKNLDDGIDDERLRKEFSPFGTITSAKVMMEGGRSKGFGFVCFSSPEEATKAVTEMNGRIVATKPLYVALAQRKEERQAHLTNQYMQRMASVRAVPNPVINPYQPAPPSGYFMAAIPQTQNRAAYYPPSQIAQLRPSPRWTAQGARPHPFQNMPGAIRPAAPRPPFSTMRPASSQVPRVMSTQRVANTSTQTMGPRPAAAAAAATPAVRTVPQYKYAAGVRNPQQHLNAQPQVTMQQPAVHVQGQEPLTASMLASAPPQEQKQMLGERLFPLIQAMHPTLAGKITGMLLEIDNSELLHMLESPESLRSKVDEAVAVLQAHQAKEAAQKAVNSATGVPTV

Test [7] in a line: Concentration-dependent survival of SW480 colon cancer line, luminescence detection with CellTiter-Glo, half-maximal inhibitory concentration (AID 1117338). The test is classed as functional.
The nature of test [8]: RKO cell viability reduction, dose response, CellTiter-Glo luminescence (AID 1117322). The test is classed as functional.
Test [9] concerns the target T3, Long-chain-fatty-acid--AMP ligase FadD28 (Mycobacterium tuberculosis, UniProt P9WQ59).
T3 sequence (P9WQ59 whole entry): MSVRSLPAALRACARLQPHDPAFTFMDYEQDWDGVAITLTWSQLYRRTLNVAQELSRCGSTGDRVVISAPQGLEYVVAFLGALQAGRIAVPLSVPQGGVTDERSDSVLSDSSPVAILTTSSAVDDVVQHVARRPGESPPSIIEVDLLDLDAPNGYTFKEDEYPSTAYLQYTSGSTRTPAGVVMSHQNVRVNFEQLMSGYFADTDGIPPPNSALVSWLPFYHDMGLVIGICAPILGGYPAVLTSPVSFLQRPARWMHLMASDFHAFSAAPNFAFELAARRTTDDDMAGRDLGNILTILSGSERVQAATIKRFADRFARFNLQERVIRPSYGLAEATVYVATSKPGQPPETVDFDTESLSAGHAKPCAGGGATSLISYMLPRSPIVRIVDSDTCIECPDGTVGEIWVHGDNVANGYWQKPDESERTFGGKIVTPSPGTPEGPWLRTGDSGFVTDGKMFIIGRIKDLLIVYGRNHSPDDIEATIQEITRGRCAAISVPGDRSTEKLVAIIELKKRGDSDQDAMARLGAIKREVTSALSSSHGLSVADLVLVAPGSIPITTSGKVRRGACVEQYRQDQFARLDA
Nature of the test: Fluorescence polarization aasay to screen for inhibitors that compete for the binding of FadD28 to a bisubstrate Measured in Biochemical System Using Plate Reader - 2147-01_Inhibitor_Dose_CherryPick_Activity. The test is classed as functional, Mycobacterium tuberculosis H37Rv.

A short description of test [10]: cytotoxicity toward HCT116 cells – cell-based, CellTiter-Glo luminescence, IC50, dose response (AID 1117332). It is filed as functional. To be noted: HCT-116.
The target in test [11] is T2, Polyadenylate-binding protein 1. The test is described as follows: PABP1 MLLE–PAM2 interaction inhibitors, dose response, miRNA deadenylation inhibitor project, biochemical, fluorescence polarization, Cy5-PAM2 peptide, secondary (AID 602260). It is filed as functional. The note with it: read-out: IC50_Mean.
Test [12] can be described thus: CellTiter-Glo luminescent dose response of DLD-1 viability loss (AID 1117352). It is filed as functional.
Test [13] deals with T4, Microphthalmia-associated transcription factor (Homo sapiens, UniProt O75030).
T4 sequence (O75030 whole entry): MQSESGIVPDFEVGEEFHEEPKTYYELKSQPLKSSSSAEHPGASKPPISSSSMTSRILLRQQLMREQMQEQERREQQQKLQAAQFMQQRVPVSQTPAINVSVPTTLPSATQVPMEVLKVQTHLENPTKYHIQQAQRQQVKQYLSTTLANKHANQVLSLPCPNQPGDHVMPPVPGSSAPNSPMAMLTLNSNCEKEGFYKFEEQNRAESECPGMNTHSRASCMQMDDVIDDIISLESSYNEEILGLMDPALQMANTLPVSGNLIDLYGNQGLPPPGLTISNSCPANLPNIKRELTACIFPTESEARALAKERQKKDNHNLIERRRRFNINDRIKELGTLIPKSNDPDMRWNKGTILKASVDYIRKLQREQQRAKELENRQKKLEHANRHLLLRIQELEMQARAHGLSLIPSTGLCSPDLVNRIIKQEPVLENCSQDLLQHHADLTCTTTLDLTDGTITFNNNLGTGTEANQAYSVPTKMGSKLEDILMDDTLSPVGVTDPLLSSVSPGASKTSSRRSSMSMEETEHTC
Nature of the test: TRPM1 promoter luciferase signal decrease, dose response, MITF inhibitor project, cell-based, SK-MEL-5, cherry-picked, set 3 (AID 493073).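 Also: SK-MEL-5 melanoma cells with luciferase driven by the MITF target TRPM1 promoter.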 The test is classed as functional.

For test [14], the target named is T5, Histone-lysine N-methyltransferase NSD2 (Homo sapiens, UniProt O96028).
T5 sequence (O96028 whole entry): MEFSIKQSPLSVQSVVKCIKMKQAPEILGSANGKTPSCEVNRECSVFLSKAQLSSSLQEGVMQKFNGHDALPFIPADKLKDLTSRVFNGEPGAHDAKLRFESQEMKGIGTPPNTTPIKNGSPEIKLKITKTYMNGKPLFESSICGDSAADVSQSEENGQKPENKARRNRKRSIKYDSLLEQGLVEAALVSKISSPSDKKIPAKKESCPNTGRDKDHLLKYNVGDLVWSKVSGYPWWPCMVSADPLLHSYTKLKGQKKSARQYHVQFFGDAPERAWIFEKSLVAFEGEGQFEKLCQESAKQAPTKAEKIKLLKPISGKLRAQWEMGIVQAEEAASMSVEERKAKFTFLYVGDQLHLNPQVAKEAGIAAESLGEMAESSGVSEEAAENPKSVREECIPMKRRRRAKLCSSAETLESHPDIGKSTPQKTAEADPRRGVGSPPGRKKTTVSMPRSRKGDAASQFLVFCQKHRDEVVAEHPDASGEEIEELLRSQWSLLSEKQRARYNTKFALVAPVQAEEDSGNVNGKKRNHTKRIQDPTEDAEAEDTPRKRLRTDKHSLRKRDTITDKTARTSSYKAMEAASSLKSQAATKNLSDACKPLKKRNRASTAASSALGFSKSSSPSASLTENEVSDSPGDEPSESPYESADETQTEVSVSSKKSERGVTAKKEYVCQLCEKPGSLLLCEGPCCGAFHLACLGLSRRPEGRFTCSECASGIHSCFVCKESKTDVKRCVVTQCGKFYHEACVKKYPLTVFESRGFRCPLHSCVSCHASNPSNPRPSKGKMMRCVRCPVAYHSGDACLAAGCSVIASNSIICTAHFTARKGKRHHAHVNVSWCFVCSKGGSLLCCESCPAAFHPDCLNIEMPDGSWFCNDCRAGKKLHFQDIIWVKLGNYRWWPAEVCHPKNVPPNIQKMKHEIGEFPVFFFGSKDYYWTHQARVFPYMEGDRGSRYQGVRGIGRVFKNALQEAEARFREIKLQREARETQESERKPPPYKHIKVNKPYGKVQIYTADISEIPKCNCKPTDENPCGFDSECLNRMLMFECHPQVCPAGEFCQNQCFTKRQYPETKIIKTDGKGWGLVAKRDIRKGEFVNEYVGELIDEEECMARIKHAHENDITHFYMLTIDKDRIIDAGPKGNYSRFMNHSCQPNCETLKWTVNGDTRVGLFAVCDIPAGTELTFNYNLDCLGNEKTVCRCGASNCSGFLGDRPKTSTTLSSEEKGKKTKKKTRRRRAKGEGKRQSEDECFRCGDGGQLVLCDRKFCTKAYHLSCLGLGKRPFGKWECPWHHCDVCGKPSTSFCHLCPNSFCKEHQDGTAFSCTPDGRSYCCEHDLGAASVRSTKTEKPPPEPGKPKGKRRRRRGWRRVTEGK
The test is classed as biochemical.

Test [15] in a line: cytotoxicity toward HT-29 cells – cell-based, CellTiter-Glo luminescence, IC50, dose response (AID 1117330). It is filed as functional.
Test [16] can be described thus: cytotoxicity toward Colo320 cells – cell-based, CellTiter-Glo luminescence, IC50, dose response (AID 1117334). It is filed as functional. The note with it: COLO 320.
The nature of test [17]: SNU-C1 cell viability reduction, dose response, CellTiter-Glo luminescence (AID 1117323). It is filed as functional, cell-based.

Here are results for five compounds from ChEMBL document CHEMBL1201862, “PubChem BioAssay data set” (2004).

Where a name gives a salt, the structure may show the parent alone. The source made the active and inactive calls. Where only a bound is given, the exact number is not on record here.

Chain of Cytochrome P450 2C19 (P33261 whole entry): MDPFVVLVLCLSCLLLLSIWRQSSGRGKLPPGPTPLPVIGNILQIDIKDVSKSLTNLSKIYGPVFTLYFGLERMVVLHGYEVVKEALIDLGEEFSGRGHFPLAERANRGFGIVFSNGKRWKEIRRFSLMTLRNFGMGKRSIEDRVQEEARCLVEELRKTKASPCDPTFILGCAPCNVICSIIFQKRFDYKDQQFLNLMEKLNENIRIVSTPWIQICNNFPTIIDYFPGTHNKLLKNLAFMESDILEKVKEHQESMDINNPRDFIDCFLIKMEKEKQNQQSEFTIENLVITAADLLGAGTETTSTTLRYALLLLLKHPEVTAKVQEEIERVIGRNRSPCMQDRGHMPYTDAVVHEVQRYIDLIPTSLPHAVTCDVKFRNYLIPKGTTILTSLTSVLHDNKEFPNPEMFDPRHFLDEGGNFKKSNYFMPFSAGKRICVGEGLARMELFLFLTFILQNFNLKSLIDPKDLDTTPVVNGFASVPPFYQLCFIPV

For `CCCc1ncc(CN2CCCC(C(=O)Nc3ccc(-c4cccc(OC)c4)cc3)C2)cn1` (stereo unspecified), the IC50 in test [1] was > 100 µM (active).
As for `CC(C)NC(=O)C1CCCN(S(=O)(=O)c2cccs2)C1` (stereo unspecified), the IC50 in test [2] is > 100 µM (active).
Turning to `CCN(CC(=O)Nc1ccc(N2CCOCC2)cc1)Cc1nc2ccccc2c(=O)[nH]1`, the results for the AC50 on Cytochrome P450 1A2 and on Cytochrome P450 2C19 were 20 µM (inconclusive) and 22.4 µM (inconclusive), respectively. Moreover, the concentration giving a half-maximal response (EC50) in [3] was 0.03 µM (not active).
In the case of `CN1CC[C@H](c2c(O)cc(O)c3c(=O)cc(-c4ccccc4Cl)oc23)[C@H](O)C1` [ALVOCIDIB HYDROCHLORIDE], the IC50 in [4] and in test [5] was > 10 µM (inactive) throughout.
Take `CC[n+]1c(-c2ccccc2)c2cc(N)ccc2c2ccc(N)cc21` [HOMIDIUM BROMIDE]: the IC50 was 40.4 µM (inactive) in test [6]; > 20 µM (inactive) in test [7]; 3.35 µM (active) in [8]; 4.44 µM (active) in [10]; > 66 µM (inactive) in test [11]; > 20 µM (inactive) in [12]. In addition, the IC50 was > 10 µM (inactive) in test [4]; > 10 µM (inactive) in [5]; > 20 µM (inactive) in test [15]; > 20 µM (inactive) in test [16]; > 20 µM (inactive) in test [17]. In addition, the values for the AC50 in test [9], in test [13] and in test [14] were 27.4 µM (active), 2.42 µM (active) and 0.293 µM (active), respectively.

The AC50 is the concentration giving half of the maximal activity seen. The term EC50 denotes the concentration needed to bring the measured effect to its halfway point.
